Measurements taken from US20220267390A1, “MPS MODIFIED PEPTIDES AND USE THEREOF” (The Regents of the University of California, priority 2019, published 2022).
Where no end group is shown, it is not given here.

Assays:
[1] = test system: oncospheres derived from H292 cells; assay: Sphere-forming assay, smoke-enriched oncospheres derived from H292 cells; format: cell-based
Source text: FIG. 18A-18C: (FIG. 18A) Sphere-forming assays for evaluating the inhibitory effect of the MPS peptide on smoke-mediated stemness. (FIG. 18B) Quantification of the number and size of oncospheres. (FIG. 18C) RT-qPCR analyses of mRNA expression in the above oncospheres.
Targeting the MARCKS PSD is associated with inhibition of stem-like cell properties. In light of the importance of the PSD in the functionality of MARCKS protein, Applicant designed a 25-mer MPS peptide to mimic the MARCKS phosphorylation site domain (PSD). […] Applicant's initial studies have shown that elevation of phospho-MARCKS in lung cancer spheres acted in parallel with increased stemness markers, such as CD133, Oct3/4, SOX2 and Nanog (data not included). The oncospheres were derived from high MARCKS-expressing lung cancer cell lines (H1975 and CL1-5) and primary lung cancer cells (LG704 and LC3: pleural effusion cells isolated from patients with advanced stage) in non-adherent serum-free culture conditions as described previously^30-32. Flow cytometry confirmed that ˜80% of LG704 oncosphere cells are CD133-positive, a major lung CSCs marker. […] The sphere-forming ability was assessed by counting the number and size of tumor spheres (oncospheres) under a microscope. […]

[2] = test system: normal human epithelial cells; conditions: earlier work of Applicant (refs 14, 16); cited from earlier work
PIP3 = assay: Immunocytochemistry with anti-PIP3 antibodies in IPF lung fibroblast cells; format: cell-based, human; conditions: 100 μM, 12 hours
Method: Multiple IPF lung fibroblast cells were treated with either PBS or 100 μM of MPS peptide for 12 hours and then subjected to immunocytochemistry using anti-PIP3 antibodies. Representative images are shown (n=3). Scale bar: 20 μm.
MARCKS levels and activity (phospho-MARCKS) were correlated with higher pro-fibrotic activity including cell proliferation, extracellular matrix production, invasiveness, and fibroblast differentiation. Upon treatment with MPS peptides, which target MARCKS activity, Applicant observes attentuation of these activities. The second significant finding was that MARCKS mediates these profibrotic effects through through the PI3K/AKT pathway. […] Targeting of these activities with MPS peptide results in decreased AKT activity and downstream pro-fibrotic signals. The mechanism through which this occurs is through regulation of PIP2 availability at the cell membrane. In an unphosprylated state, MARCKS is able to bind PIP2 at the cell membrane, preventing PI3K proteins from converting PIP2 into PIP3 and effecting downstream AKT activity. Upon phosphorylation, MARCKS is released from the cell membrane into the cytosol, freeing up PIP2 and allowing PI3K to convert PIP2 into PIP3. […] Applicant obtained multiple IPF lung fibroblast cells and treated them with either PBS or 100 μM MPS peptide for 12 hours and subjected to immunocytochemistry utilizing anti-PIP3 antibody.

KKKKKRFSFKKSFKLSGFSFKKNKK [MPS peptide]
number and size of oncospheres [1]: inhibitory effects
expression of stemness genes ([1]; RT-qPCR): inhibitory effects
cytotoxic effect on normal human epithelial cells [2]: no cytotoxic effect
PIP3 levels (PIP3): reduced
